Legend:
[1] = tested on: human ES cell-derived neural progenitor cells; experiment: Quantitative PCR transcriptional profile after differentiation with retinoic acid
[2] = tested on: human ES cell-derived FOXA2 expressing neural progenitor cells; experiment: Immunocytochemistry and cell counts of FOXA2 expressing DA neurons at DIV49; assay type: cell-based
Method: Media were changed every 2 days.
Neural progenitor cells were differentiated toward the DA neuron phenotype with mouse sonic hedgehog (Shh-N), human activated sonic hedgehog (C24II SHH-N), mouse fibroblast growth factor 8b (FGF8b), human FGF8A (all from R&D Systems, Inc.), 20 ng/ml brain derived neurotrophic factor (BDNF) (PeproTech EC Ltd), 1 ng/ml transforming growth factor type β3 (TGF-β3) (Calbiochem, San Diego, Calif.), 10 ng/ml glial cell line-derived neurotrophic factor (GDNF), 0.5 mM dibutyryl cAMP, and 0.2 mM ascorbic acid (AA) (all from Sigma-Aldrich). After 21 days (Day 35) cells were passaged using Tryple (Invitrogen Corporation) and spun at 1,000 rpm for 5 minutes. Cells were resuspended in N2 medium and plated again at a density of approximately 1,000,000-2,000,000 cells per well (24 well plate) on polyornithine/laminin-coated dishes in the presence of BDNF, AA, SHH, and FGF8. After an additional 7 days of culture (DIV42), cells were differentiated until Day 49 without SHH and FGF8 but in the presence of BDNF, AA, cAMP, GDNF, and TGF-β3.
Cells were fixed in 4% paraformaldehyde and analyzed by indirect immunofluorescence (Sonntag et al., 2005). Fluorescent signals were examined using an LSM510 Meta confocal microscope equipped with ultraviolet, argon, and helium-neon lasers (Carl Zeiss, Thornwood, N.Y.). […]
Quantitative analysis of immunocytochemistry was performed on randomly selected confocal fields from at least two independent differentiation experiments. In each field, images of separate channels (Hoechst, 488, 568, 594) were acquired at 40× magnification on an integrated confocal microscope (LSM510/Meta, Carl Zeiss) and stereology workstation (StereoInvestigator, MBF Bioscience, Inc., Williston, Vt.), where images of cells in independent channels and merged images were counted.

Q: `CC1=C(/C=C/C(C)=C/C=C/C(C)=C/C(=O)O)C(C)(C)CCC1` [RA, all-trans retinoic acid] was tested. Which “OTX2, PAX2 and HOXB1 levels” value ([1]; 10^-6 M and 10^-7 M RA, 22 days of differentiation, relative to conditions without RA) did it give?
A: reduced OTX2 and PAX2 levels and increased HOXB1 levels

Q: And the “increase of expression levels of the midbrain transcription factor EN1” value ([1]; 10^-8 M RA, 22 days of differentiation, relative to conditions without RA)?
A: more than 2000 fold

Q: And the “expression levels of the ventral neural transcription factor FOXA2” value ([1]; all RA conditions tested (0, 10^-6 to 10^-9 M))?
A: consistently low

B1: Noggin: recombinant Noggin protein (R&D Systems) (protein, UniProt Q13253 28-232, looked up)
Noggin: QHYLHIRPAPSDNLPLVDLIEHPDPIFDPKEKDLNETLLRSLLGGHYDPGFMATSPPEDRPGGGGGAAGGAEDLAELDQLLRQRPSGAMPSEIKGLEFSEGLAQGKKQRLSKKLRRKLQMWLWSQTFCPVLYAWNDLGSRFWPRYVKVGSCFSKRSCSVPEGMVCKPSKSVHLTVLRWRCQRRGGQRCGWIPIQYPIISECKCSC
Q: Which “cells coexpressing FOXA2, TH and β-tubulin” value (“cells coexpressing FOXA2” for short) ([2]; DIV49, cultures grown with Noggin alone during first 14 days) does the source give for B1 here?
A: did not contain cells that coexpressed FOXA2, TH, and β-tubulin

Q: What about the “cells coexpressing FOXA2” value ([2]; DIV49, cultures grown with or without Noggin during first 14 days (with WNT1)) of the same molecule?
A: contained cells that coexpressed FOXA2, TH and β-tubulin

B2: WNT1: secreted signaling protein encoded by the human WNT1 proto-oncogene; recombinant (protein, UniProt P04628 28-370, looked up)
Proto-oncogene Wnt-1: ANSSGRWWGIVNVASSTNLLTDSKSLQLVLEPSLQLLSRKQRRLIRQNPGILHSVSGGLQSAVRECKWQFRNRRWNCPTAPGPHLFGKIVNRGCRETAFIFAITSAGVTHSVARSCSEGSIESCTCDYRRRGPGGPDWHWGGCSDNIDFGRLFGREFVDSGEKGRDLRFLMNLHNNEAGRTTVFSEMRQECKCHGMSGSCTVRTCWMRLPTLRAVGDVLRDRFDGASRVLYGNRGSNRASRAELLRLEPEDPAHKPPSPHDLVYFEKSPNFCTYSGRLGTAGTAGRACNSSSPALDGCELLCCGRGHRTRTQRVTERCNCTFHWCCHVSCRNCTHTRVLHECL
Q: B2 was tested. Which “cells coexpressing FOXA2” value ([2]; DIV49, cultures grown without WNT1 during first 14 days) did it give?
A: did not contain cells that coexpressed FOXA2, TH, and β-tubulin

Reference: US9968637B2, “Dopaminergic neurons differentiated from pluripotent stem cells and uses thereof” (THE MCLEAN HOSPITAL CORPORATION, priority 2010, dated 2018)
